Values joined by “and” are separate entries in the source; they are usually repeats but may differ in a detail not shown here. Equal values may be shown once. Toxic doses and inconclusive results are not listed.
System: P388 leukemia ip, CD2F1 mice, survival T/C
Test: NCI In Vivo Anticancer Drug Screen. Data for tumor model P388 Leukemia (intraperitoneal) in CD2F1 (CDF1) mice
Conditions: endpoint: median survival time, higher = longer survival
In short: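 Mice carrying the transplanted tumor received test compound or vehicle. Survival was recorded in each group, and the value is the treated-group measurement divided by that of the vehicle-treated control group.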

[1] = dose: 50.0 mg/kg/injection, schedule: Q01DX005 (ip), vehicle: Klucel (hydroxypropylcellulose) (HPC)
[2] = dose: 100.0 mg/kg/injection, schedule: Q01DX005 (ip), vehicle: Klucel (hydroxypropylcellulose) (HPC)
[3] = dose: 200.0 mg/kg/injection, schedule: Q01DX005 (ip), vehicle: Klucel (hydroxypropylcellulose) (HPC)
[4] = dose: 50.0 mg/kg/injection, schedule: Q01DX005 (ip), vehicle: saline with Tween-80
[5] = dose: 100.0 mg/kg/injection, schedule: Q01DX005 (ip), vehicle: saline with Tween-80
[6] = dose: 12.5 mg/kg/injection, schedule: Q01DX009 (ip), vehicle: saline
[7] = dose: 25.0 mg/kg/injection, schedule: Q01DX009 (ip), vehicle: saline
[8] = dose: 50.0 mg/kg/injection, schedule: Q01DX009 (ip), vehicle: saline
[9] = dose: 100.0 mg/kg/injection, schedule: Q01DX009 (ip), vehicle: saline
[10] = dose: 12.5 mg/kg/injection, schedule: Q01DX009 (ip), vehicle: saline with Tween-80
[11] = dose: 25.0 mg/kg/injection, schedule: Q01DX009 (ip), vehicle: saline with Tween-80
[12] = dose: 50.0 mg/kg/injection, schedule: Q01DX009 (ip), vehicle: saline with Tween-80
[13] = dose: 100.0 mg/kg/injection, schedule: Q01DX009 (ip), vehicle: saline with Tween-80
[14] = dose: 60.0 mg/kg/injection, schedule: Q01DX005 (ip), vehicle: saline with Tween-80
[15] = dose: 120.0 mg/kg/injection, schedule: Q01DX005 (ip), vehicle: saline with Tween-80
[16] = dose: 240.0 mg/kg/injection, schedule: Q01DX005 (ip), vehicle: saline with Tween-80
[17] = dose: 200.0 mg/kg/injection, schedule: Q01DX009 (ip), vehicle: saline with Tween-80
[18] = dose: 50.0 mg/kg/injection, schedule: Q01DX009 (ip), vehicle: Klucel (hydroxypropylcellulose) (HPC)
[19] = dose: 100.0 mg/kg/injection, schedule: Q01DX009 (ip), vehicle: Klucel (hydroxypropylcellulose) (HPC)
[20] = dose: 200.0 mg/kg/injection, schedule: Q01DX009 (ip), vehicle: Klucel (hydroxypropylcellulose) (HPC)

SMILES: O=C1C(Cl)=C(N2CC2)C(=O)C(Cl)=C1N1CC1
- T/C (dose: 0.08 mg/kg/injection, schedule: Q01DX009 (ip), vehicle: saline with Tween-80): 105 % of control
- T/C (dose: 0.16 mg/kg/injection, schedule: Q01DX009 (ip), vehicle: saline with Tween-80): 112 % of control
- T/C (dose: 0.31 mg/kg/injection, schedule: Q01DX009 (ip), vehicle: saline with Tween-80): 122 % of control
- T/C (dose: 0.63 mg/kg/injection, schedule: Q01DX009 (ip), vehicle: saline with Tween-80): 124 % of control
- T/C (dose: 2.5 mg/kg/injection, schedule: Q01DX009 (ip), vehicle: saline with Tween-80): 155 % of control
- T/C (dose: 5.0 mg/kg/injection, schedule: Q01DX009 (ip), vehicle: saline with Tween-80): 155 % of control
- T/C (dose: 10.0 mg/kg/injection, schedule: Q01DX009 (ip), vehicle: saline with Tween-80): 155 % of control

SMILES: C1CNCCNCCNCCN1
- T/C (dose: 12.5 mg/kg/injection, schedule: Q01DX009 (ip), vehicle: water): 101 % of control
- T/C (dose: 25.0 mg/kg/injection, schedule: Q01DX009 (ip), vehicle: water): 96 % of control
- T/C (dose: 50.0 mg/kg/injection, schedule: Q01DX009 (ip), vehicle: water): 100 % of control
- T/C (dose: 100.0 mg/kg/injection, schedule: Q01DX009 (ip), vehicle: water): 101 % of control

SMILES: Cc1c(-c2ccccc2)ccnc1/C=N/NC(=S)NCCCN(C)C
- T/C (dose: 12.5 mg/kg/injection, schedule: Q01DX009 (ip), vehicle: other): 105 % of control
- T/C (dose: 25.0 mg/kg/injection, schedule: Q01DX009 (ip), vehicle: other): 114 % of control
- T/C (dose: 50.0 mg/kg/injection, schedule: Q01DX009 (ip), vehicle: other): 101 % of control and 112 % of control

SMILES: COC(=O)C1(C)C(=O)NC(=O)CC1C (stereo not drawn)
- T/C [1]: 105 % of control
- T/C [2]: 101 % of control
- T/C [3]: 87 % of control

SMILES: CCCC(CC)(C(=O)Nc1ccc2nc(C)cc(N)c2c1)C(=O)Nc1ccc2nc(C)cc(N)c2c1
- T/C [4]: 91 % of control
- T/C [5]: 93 % of control

SMILES: O=C1c2ccccc2C(=O)C1c1ccc2c(ccc3ccccc32)n1
- T/C [1]: 98 % of control
- T/C [2]: 88 % of control
- T/C [3]: 96 % of control

SMILES: CC(C(=O)O)c1ncnn1-c1ccccc1 (stereo not drawn)
- T/C (dose: 60.0 mg/kg/injection, schedule: Q01DX005 (ip), vehicle: saline): 105 % of control
- T/C (dose: 120.0 mg/kg/injection, schedule: Q01DX005 (ip), vehicle: saline): 104 % of control
- T/C (dose: 240.0 mg/kg/injection, schedule: Q01DX005 (ip), vehicle: saline): 102 % of control

SMILES: C=C(Cl)C[N+]12CN3CN(CN(C3)C1)C2
- T/C [6]: 100 % of control
- T/C [7]: 96 % of control
- T/C [8]: 105 % of control
- T/C [9]: 107 % of control

SMILES: CCS(=O)(=O)OCCCCOS(=O)(=O)CC
- T/C [10]: 100 % of control and 97 % of control
- T/C [11]: 103 % of control and 93 % of control
- T/C [12]: 115 % of control and 90 % of control
- T/C [13]: 114 % of control and 90 % of control

SMILES: O=C1c2ccccc2C(=O)N1CCS(=O)(=O)Cl
- T/C [10]: 100 % of control
- T/C [11]: 106 % of control
- T/C [12]: 114 % of control
- T/C [13]: 117 % of control

SMILES: NC(=O)N=Nc1ccc(Br)cc1
- T/C [4]: 102 % of control
- T/C [5]: 102 % of control
- T/C (dose: 200.0 mg/kg/injection, schedule: Q01DX005 (ip), vehicle: saline with Tween-80): 93 % of control

SMILES: O=c1oc2ccc(Br)cc2cc1-n1nnc2ccccc21
- T/C (dose: 15.0 mg/kg/injection, schedule: Q01DX005 (ip), vehicle: saline with Tween-80): 88 % of control
- T/C (dose: 30.0 mg/kg/injection, schedule: Q01DX005 (ip), vehicle: saline with Tween-80): 93 % of control
- T/C [14]: 88 % of control and 90 % of control
- T/C [15]: 86 % of control and 97 % of control
- T/C [16]: 97 % of control

SMILES: O=C1OC2(c3ccc(O)cc3Oc3cc(O)ccc32)c2cccc3cccc1c23
- T/C [1]: 105 % of control
- T/C [2]: 99 % of control
- T/C [3]: 103 % of control

SMILES: N#C/C(=C\c1cccs1)C(=O)c1ccco1
- T/C [12]: 101 % of control
- T/C [13]: 100 % of control
- T/C [17]: 95 % of control

SMILES: O=C1CC2c3c(OCc4ccccc4)cc(OCc4ccccc4)cc3OC2O1 (stereo not drawn)
- T/C (dose: 8.75 mg/kg/injection, schedule: Q01DX005 (ip), vehicle: Klucel (hydroxypropylcellulose) (HPC)): 88 % of control
- T/C (dose: 17.5 mg/kg/injection, schedule: Q01DX005 (ip), vehicle: Klucel (hydroxypropylcellulose) (HPC)): 91 % of control
- T/C (dose: 35.0 mg/kg/injection, schedule: Q01DX005 (ip), vehicle: Klucel (hydroxypropylcellulose) (HPC)): 88 % of control

SMILES: Cc1cc(=O)oc2cc(O)c(C(=O)/C=C/N(C)C)cc12
- T/C [14]: 92 % of control
- T/C [15]: 95 % of control
- T/C [16]: 86 % of control

SMILES: CCOC(=O)c1ccc(NC(CCC(C#N)(C#N)CCC(=NC(C)(C)C)Nc2ccc(C(=O)OCC)cc2)=NC(C)(C)C)cc1
- T/C [12]: 95 % of control
- T/C [13]: 95 % of control
- T/C [17]: 96 % of control

SMILES: COc1ccccc1N1CCCSC1=Nc1ccccc1
- T/C (dose: 12.5 mg/kg/injection, schedule: Q01DX009 (ip), vehicle: Klucel (hydroxypropylcellulose) (HPC)): 105 % of control
- T/C (dose: 25.0 mg/kg/injection, schedule: Q01DX009 (ip), vehicle: Klucel (hydroxypropylcellulose) (HPC)): 98 % of control
- T/C [18]: 90 % of control
- T/C [19]: 119 % of control
- T/C [20]: 90 % of control

SMILES: CCOC(=O)c1ccc(NC(=O)Nc2ccccc2OC)cc1
- T/C (dose: 3.75 mg/kg/injection, schedule: Q01DX005 (ip), vehicle: Klucel (hydroxypropylcellulose) (HPC)): 94 % of control
- T/C (dose: 7.5 mg/kg/injection, schedule: Q01DX005 (ip), vehicle: Klucel (hydroxypropylcellulose) (HPC)): 97 % of control
- T/C (dose: 15.0 mg/kg/injection, schedule: Q01DX005 (ip), vehicle: Klucel (hydroxypropylcellulose) (HPC)): 92 % of control
- T/C (dose: 60.0 mg/kg/injection, schedule: Q01DX005 (ip), vehicle: Klucel (hydroxypropylcellulose) (HPC)): 88 % of control
- T/C (dose: 240.0 mg/kg/injection, schedule: Q01DX005 (ip), vehicle: Klucel (hydroxypropylcellulose) (HPC)): 86 % of control

SMILES: CCCC(C(=O)OCCN(CC)CC)(c1ccccc1)c1ccccc1
- T/C [6]: 108 % of control
- T/C (dose: 12.5 mg/kg/injection, schedule: Q04DX003 (ip), vehicle: saline): 100 % of control
- T/C [7]: 100 % of control
- T/C (dose: 25.0 mg/kg/injection, schedule: Q04DX003 (ip), vehicle: saline): 100 % of control
- T/C [8]: 91 % of control
- T/C (dose: 50.0 mg/kg/injection, schedule: Q04DX003 (ip), vehicle: saline): 100 % of control

SMILES: CC(C)NCC(O)c1cc(Br)c(Br)s1 (stereo not drawn)
- T/C [8]: 98 % of control
- T/C [9]: 102 % of control

SMILES: COc1ccc(/C(C#N)=C/c2cccs2)cc1
- T/C [18]: 111 % of control
- T/C [19]: 102 % of control
- T/C [20]: 104 % of control

SMILES: NC(=O)C1OC(n2cnc3c(N)ncnc32)C(O)C1O (stereo not drawn)
- T/C (dose: 1.56 mg/kg/injection, schedule: Q01DX005 (ip), vehicle: saline with Tween-80): 100 % of control and 104 % of control
- T/C (dose: 3.13 mg/kg/injection, schedule: Q01DX005 (ip), vehicle: saline with Tween-80): 105 % of control and 114 % of control
- T/C (dose: 6.25 mg/kg/injection, schedule: Q01DX005 (ip), vehicle: saline with Tween-80): 109 % of control and 115 % of control and 121 % of control

SMILES: CCOC(=O)C1Sc2c(c(=O)n(C)c3ccccc23)C1=O (stereo not drawn)
- T/C [1]: 101 % of control and 107 % of control and 110 % of control
- T/C [2]: 99 % of control and 105 % of control and 108 % of control
- T/C [3]: 108 % of control and 112 % of control and 123 % of control

SMILES: C=CCCCC(=O)CCCCBr
- T/C [12]: 122 % of control
- T/C [13]: 108 % of control
- T/C [17]: 110 % of control

SMILES: C=CCn1c(-c2cccc(O)c2)n[nH]c1=S
- T/C [11]: 104 % of control
- T/C [12]: 115 % of control
- T/C [13]: 96 % of control

SMILES: CC(NC(=O)C(Cc1cnc[nH]1)NC(=O)OCc1ccccc1)C(=O)O (stereo not drawn)
- T/C [1]: 96 % of control
- T/C [2]: 96 % of control
- T/C [3]: 96 % of control

SMILES: O=S(=O)(c1ccc(NC(=S)NCc2ccncc2)cc1)N1CCCCC1
- T/C [18]: 97 % of control
- T/C [19]: 95 % of control
- T/C [20]: 98 % of control

SMILES: CCOCc1nc(N)nc(N)c1-c1cccc(Cl)c1
- T/C [14]: 100 % of control
- T/C [15]: 102 % of control

SMILES: COc1cc(C2C(C#N)=CNc3nc(N)nc(N)c32)cc(OC)c1OC (stereo not drawn)
- T/C [14]: 120 % of control

SMILES: COC(=O)/C=C1\Sc2cc(F)ccc2NC1=O
- T/C [12]: 92 % of control
- T/C [13]: 98 % of control
- T/C [17]: 100 % of control

SMILES: O=c1cc(-c2ccccc2)c2cc3c(cc2[nH]1)oc1ccccc13
- T/C [14]: 93 % of control
- T/C [15]: 98 % of control
- T/C [16]: 100 % of control

Source: PubChem BioAssay AID330 (DTP/NCI, 2004)
